Patent US9682953B2, “Amide compounds, compositions and applications thereof” (Advinus Therapeutics Limited, priority 2011, dated 2017)
Where two headings read alike, the source gives them in different places.

Legend:
[1] = target: human Fatty Acid Amide Hydrolase (FAAH) (Homo sapiens (Human), UniProt O00519); test: biochemical
[2] = target: rat Fatty Acid Amide Hydrolase (FAAH) (Rattus norvegicus (Rat), UniProt P97612); test: FAAH in vitro fluorescence assay (AAMCA hydrolysis), rat enzyme; format: biochemical; conditions: for inhibition at 0.1 µM: read-out: rFAAH % inhibition at 100 nM
Chain of rat Fatty Acid Amide Hydrolase (FAAH) (P97612 30-579): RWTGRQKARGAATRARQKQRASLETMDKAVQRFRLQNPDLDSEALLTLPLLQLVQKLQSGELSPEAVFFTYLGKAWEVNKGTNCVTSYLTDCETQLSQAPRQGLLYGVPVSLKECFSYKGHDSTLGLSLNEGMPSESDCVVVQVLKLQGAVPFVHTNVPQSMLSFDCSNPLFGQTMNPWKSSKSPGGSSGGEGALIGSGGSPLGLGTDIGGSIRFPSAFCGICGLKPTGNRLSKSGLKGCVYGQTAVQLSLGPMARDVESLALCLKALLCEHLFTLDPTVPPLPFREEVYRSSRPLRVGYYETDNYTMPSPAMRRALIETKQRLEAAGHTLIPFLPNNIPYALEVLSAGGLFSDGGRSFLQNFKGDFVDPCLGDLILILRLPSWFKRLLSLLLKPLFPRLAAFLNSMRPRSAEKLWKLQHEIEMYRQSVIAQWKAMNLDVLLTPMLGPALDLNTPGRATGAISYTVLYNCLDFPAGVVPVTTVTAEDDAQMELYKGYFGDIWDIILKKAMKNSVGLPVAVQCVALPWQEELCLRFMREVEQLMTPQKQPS
Description: Material and Reagents: All reagents were purchased from Sigma-Aldrich unless specified. […] Chaperone protein groEL-groES in pGRO7 plasmid (Takara Bio Inc, Japan) was co-expressed with Fatty Acid Amide Hydrolase (FAAH) to improve solubility of the protein expressed in E coli. […] Briefly, the bacterial cultures in Luria Broth (2 L) were induced with arabinose (2 mM) and Isopropyl (β-D-1-thiogalactopyranoside, IPTG (1 mM), for 20 h at room temperature. The cultures were centrifuged at 1200×g for 10 min and the cell pellet was resuspended in 100 mL buffer containing of 20 mM NaPi (pH 7.4), 100 mM NaCl, Benzonase (500u), Aprotinin (1 μg/mL) and Leupeptin (1 μg/mL). Cells were lyzed by sonication (Amp 20%, Pulse 15 s×15, on ice) and the cell debris removed by centrifugation at 5000×g for 20 min. The supernatant was enriched via ultracentrifugation at 100,000×g for 1 h and the cell pellet was resuspended in 16 mL buffer containing 20 mM NaPi (pH 7.8), 500 mM NaCl, 1% Triton X-100. The resuspended cell extract was subjected to ultra-centrifugation at 100,000×g for 1 h and the enriched supernatant was used in the in vitro assay. All protein extraction steps were carried out on ice or at 4° C.
The assay was carried out in 200 μL volume in a 96-well black polystyrene plate (Greiner Bio-one, Germany). Each reaction consisted of human Fatty Acid Amide Hydrolase (FAAH) protein and 10 μM AAMCA in assay buffer containing 50 mM HEPES, 1 mM EDTA and 0.1% BSA, pH 7.4. The reaction was incubated with 2 μL of varying concentrations of inhibitor in DMSO (final concentration of DMSO 1%) with shaking for 1 min and monitored for increase in fluorescence in kinetic mode for 50 min. […] Rate of reaction as a function of the concentration of the inhibitor was used to determine the IC50 of the inhibitors. Data was analyzed using GraphPad Prism 5 (GraphPad Software Inc., San Diego, Calif.). The activity of the compounds for rat Fatty Acid Amide Hydrolase (FAAH) was evaluated as described above with rat Fatty Acid Amide Hydrolase (FAAH) protein and 10 μM AAMCA substrate.

[3] = human FAAH, read-out: hFAAH IC50

Chain of human Fatty Acid Amide Hydrolase (FAAH) (O00519 30-579): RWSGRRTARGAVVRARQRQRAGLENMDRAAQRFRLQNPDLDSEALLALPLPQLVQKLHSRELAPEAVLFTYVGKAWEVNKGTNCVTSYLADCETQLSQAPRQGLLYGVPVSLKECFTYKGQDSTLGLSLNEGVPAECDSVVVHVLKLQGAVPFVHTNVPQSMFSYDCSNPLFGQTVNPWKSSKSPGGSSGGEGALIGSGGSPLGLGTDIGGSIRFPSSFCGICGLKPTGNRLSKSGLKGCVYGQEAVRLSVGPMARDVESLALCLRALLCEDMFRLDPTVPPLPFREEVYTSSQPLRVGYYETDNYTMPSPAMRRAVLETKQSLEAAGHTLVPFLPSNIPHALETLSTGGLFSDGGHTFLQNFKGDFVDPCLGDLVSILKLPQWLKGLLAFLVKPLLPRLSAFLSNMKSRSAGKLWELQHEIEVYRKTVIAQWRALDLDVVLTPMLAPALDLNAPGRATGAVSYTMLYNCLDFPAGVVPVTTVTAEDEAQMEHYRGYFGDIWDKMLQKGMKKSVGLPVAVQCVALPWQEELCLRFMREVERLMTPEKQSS

SMILES	IC50 ([1]; read-out: hFAAH IC50) [nM]	IC50 ([2]; rat FAAH, read-out: rFAAH IC50) [nM]	IC50 [1, 3] [nM]	also measured
O=C(NC1CCC(=Cc2cccc(Oc3ccc(C(F)(F)F)cn3)c2)CC1)c1cccnc1F (centres unmarked) [Example 2.A-26, 2-Fluoro-N-[4-[[3-[[5-(trifluoromethyl)-2-pyridyl]oxy]phenyl]methylene]cyclohexyl]pyridine-3-carboxamide]	5	84		
O=C(NC1CCC(=Cc2cccc(Oc3ccc(C(F)(F)F)cn3)c2)CC1)c1cncnc1 (centres unmarked) [Example 2.A-12, N-[4-[[3-[[5-(Trifluoromethyl)-2-pyridyl]oxy]phenyl]methylene]cyclohexyl]pyrimidine-5-carboxamide]	3	100		
O=C(NC1CCC(=Cc2cccc(Oc3ccc(C(F)(F)F)cn3)c2)CC1)c1c[nH]nc1C(F)(F)F (centres unmarked) [Example 2.A-29, 3-(Trifluoromethyl)-N-[4-[[3-[[5-(trifluoromethyl)-2-pyridyl]oxy]phenyl]methylene]cyclohexyl]-1H-pyrazole-4-carboxamide]	3	24		
Cc1nc(Oc2cccc(C=C3CCC(NC(=O)c4ccc(N)nc4)CC3)c2)ccc1Cl (centres unmarked) [Example 2.E-16, 6-Amino-N-[4-[[3-[(5-chloro-6-methyl-2-pyridyl)oxy]phenyl]methylene]cyclohexyl]pyridine-3-carboxamide]		24	3	
CCN(C)c1ccc(C(=O)NC2CCC(=Cc3cccc(Oc4ccc(C(F)(F)F)cn4)c3)CC2)cn1 (centres unmarked) [Example 5.A-7, 6-[Ethyl(methyl)amino]-N-[4-[[3-[[5-(trifluoromethyl)-2-pyridyl]oxy]phenyl]methylene]cyclohexyl]pyridine-3-carboxamide]		15	128	
O=C(NC1CCC(=Cc2cccc(Oc3ccc(C(F)(F)F)cn3)c2)CC1)c1ccc(F)nc1 (centres unmarked) [Example 2.A-14, 6-Fluoro-N-[4-[[3-[[5-(trifluoromethyl)-2-pyridyl]oxy]phenyl]methylene]cyclohexyl]pyridine-3-carboxamide]	10			inhibition at 0.1 µM ([2]; rat FAAH, 100 nM (tier I)): 25%
O=C(NC1CCC(=Cc2cccc(Oc3ccc(C(F)(F)F)cn3)c2)CC1)c1ccccn1 (centres unmarked) [Example 2.A-4, N-[4-[[3-[[5-(Trifluoromethyl)-2-pyridyl]oxy]phenyl]methylene]cyclohexyl]pyridine-2-carboxamide]			508	inhibition at 30 µM ([2]; read-out: rFAAH % inhibition at 30 uM, rat FAAH, 30 uM): 70%
O=C(NC1CCC(=Cc2cccc(Oc3ccc(C(F)(F)F)cn3)c2)CC1)c1ccc(-n2cccn2)nc1 (centres unmarked) [Example 5.A-6, 6-Pyrazol-1-yl-N-[4-[[3-[[5-(trifluoromemyl)-2-pyridyl]oxy]phenyl]methylene]cyclohexyl]pyridine-3-carboxamide]	7	7		
O=C(NC1CCC(=Cc2cccc(Oc3ccc(C(F)(F)F)cn3)c2)CC1)c1cc[nH]n1 (centres unmarked) [Example 2.A-1, N-[4-[[3-[[5-(Trifluoromethyl)-2-pyridyl]oxy]phenyl]methylene]cyclohexyl]-1H-pyrazole-3-carboxamide]		418	10	
CN(C)c1ccc(C(=O)NC2CCC(=Cc3cccc(Oc4ccc(C(F)(F)F)cn4)c3)CC2)cn1 (centres unmarked) [Example 2.A-24, 6-(Dimethylamino)-N-[4-[[3-[[5-(trifluoromethyl)-2-pyridyl]oxy]phenyl]methylene]cyclohexyl]pyridine-3-carboxamide]	9			inhibition at 0.1 µM ([2]; rat FAAH, 100 nM (tier I)): 31%
O=C(NC1CCC(=Cc2cccc(Oc3ccc(C(F)(F)F)cn3)c2)CC1)c1ccc(N2CCCC2)nc1 (centres unmarked) [Example 5.A-2, 6-Pyrrolidin-1-yl-N-[4-[[3-[[5-(trifluoromethyl)-2-pyridyl]oxy]phenyl]methylene]cyclohexyl]pyridine-3-carboxamide]		28		inhibition at 0.1 µM ([1]; read-out: hFAAH % inhibition at 100 nM, human FAAH, 100 nM (tier I)): 54%
O=C(NC1CCC(=Cc2cccc(Oc3ccc(C(F)(F)F)cn3)c2)CC1)c1ccc(C2CC2)nc1 (centres unmarked) [Example 2.A-42, 6-Cyclopropyl-N-[4-[[3-[[5-(trifluoromethyl)-2-pyridyl]oxy]phenyl]methylene]cyclohexyl]pyridine-3-carboxamide]		14	13	
Cc1[nH]ncc1C(=O)NC1CCC(=Cc2cccc(Oc3ccc(C(F)(F)F)cn3)c2)CC1 (centres unmarked) [Example 2.A-23, 5-Methyl-N-[4-[[3-[[5-(trifluoromethyl)-2-pyridyl]oxy]phenyl]methylene]cyclohexyl]-1H-pyrazole-4-carboxamide]		29	5	
O=C(NC1CCC(=Cc2cccc(Oc3ccc(C(F)(F)F)cn3)c2)CC1)c1cccnc1Cl (centres unmarked) [Example 2.A-25, 2-Chloro-N-[4-[[3-[[5-(trifluoromethyl)-2-pyridyl]oxy]phenyl]methylene]cyclohexyl]pyridine-3-carboxamide]	16			rFAAH % inhibition at 100 nM ([2]; rat FAAH, 100 nM (tier I)): No inh at 100 nM
O=C(NC1CCC(=Cc2cccc(Oc3ccc(C(F)(F)F)cn3)c2)CC1)c1ccccc1 (centres unmarked) [Example 2.A-34, N-[4-[[3-[[5-(Trifluoromethyl)-2-pyridyl]oxy]phenyl]methylene]cyclohexyl]benzamide]			18	inhibition at 1 µM ([2]; read-out: rFAAH % inhibition at 1 μM, rat FAAH, 1 μM): 50%
O=C(NC1CCC(=Cc2cccc(Oc3ccc(C(F)(F)F)cn3)c2)CC1)c1ccc(-n2cc(Cl)cn2)nc1 (centres unmarked) [Example 2.B-8, 6-(4-Chloropyrazol-1-yl)-N-[4-[[3-[[5-(trifluoromethyl)-2-pyridyl]oxy]phenyl]methylene]cyclohexyl]pyridine-3-carboxamide]		21	5	
O=C(NC1CCC(=Cc2cccc(Oc3ccc(C(F)(F)F)cn3)c2)CC1)c1cnc2[nH]ccc2c1 (single isomer, unassigned; (+)) [Example 20.A-13, (+)-N-[4-[[3-[[5-(trifluoromethyl)-2-pyridyl]oxy]phenyl]methylene]cyclohexyl]-1H-pyrrolo[2,3-b]pyridine-5-carboxamide]	55	407		
Cc1nc(Oc2cccc(C=C3CCC(NC(=O)c4cnc(N)nc4)CC3)c2)ccc1C(F)(F)F (centres unmarked) [Example 2.E-22, 2-Amino-N-[4-[[3-[[6-methyl-5-(trifluoromethyl)-2-pyridyl]oxy]phenyl]methylene]cyclohexyl]pyrimidine-5-carboxamide]		21	2	
Nc1ncc(C(=O)NC2CCC(=Cc3cccc(Oc4ccc(C(F)(F)F)cn4)c3)CC2)cc1Cl (centres unmarked) [Example 4.A-3, 6-Amino-5-chloro-N-[4-[[3-[[5-(trifluoromethyl)-2-pyridyl]oxy]phenyl]methylene]cyclohexyl]pyridine-3-carboxamide]				IC50 ([1]; hFAAH IC50): 3 nM; IC50 [2]: 16 nM
O=C(NC1CCC(=Cc2cccc(Oc3ccc(C(F)(F)F)cn3)c2)CC1)c1c[nH]c2ccccc12 [Example 2.D-6, N-[4-[[3-[[5-(Trifluoromethyl)-2-pyridyl]oxy]phenyl]methylene]cyclohexyl]-1H-indole-3-carboxamide]	10	87		
Cc1cc(C(=O)NC2CCC(=Cc3cccc(Oc4ccc(Cl)c(C)n4)c3)CC2)cnc1N (centres unmarked) [Example 2.E-25, 6-Amino-N-[4-[[3-[(5-chloro-6-methyl-2-pyridyl)oxy]phenyl]methylene]cyclohexyl]-5-methyl-pyridine-3-carboxamide]		32	7	
O=C(NC1CCC(=Cc2cccc(Oc3ccc(C(F)(F)F)cn3)c2)CC1)c1cn[nH]n1 (centres unmarked) [Example 2.A-19, N-[4-[[3-[[5-(Trifluoromethyl)-2-pyridyl]oxy]phenyl]methylene]cyclohexyl]-2H-triazole-4-carboxamide]		145	6	
Nc1ncc(C(=O)NC2CCC(=Cc3cccc(Oc4ccc(C(F)(F)F)cn4)c3)CC2)cn1 (centres unmarked) [Example 2.C-6, 2-Amino-N-[4-[[3-[[5-(trifluoromethyl)-2-pyridyl]oxy]phenyl]methylene]cyclohexyl]pyrimidine-5-carboxamide]	1	16		
CCc1ccc(C(=O)NC2CCC(=Cc3cccc(Oc4ccc(C(F)(F)F)cn4)c3)CC2)cn1 (centres unmarked) [Example 2.A-43, 6-Ethyl-N-[4-[[3-[[5-(trifluoromethyl)-2-pyridyl]oxy]phenyl]methylene]cyclohexyl]pyridine-3-carboxamide]		18	4	
O=C(NC1CCC(=Cc2cccc(Oc3ccc(C(F)(F)F)cn3)c2)CC1)c1ccc(NC2CC2)nc1 (centres unmarked) [Example 5.A-10, 6-(Cyclopropylamino)-N-[4-[[3-[[5-(trifluoromethyl)-2-pyridyl]oxy]phenyl]methylene]cyclohexyl]pyridine-3-carboxamide]		74	25	
